Results: US9181259B2 (LEO PHARMA A/S, priority 2012, dated 2015)
Structures can show the parent of a compound that is named as a salt.

Key:
NK1 receptor = target: T1, NK1 receptor (Homo sapiens, UniProt P25103); assay: NK1 receptor mediated intracellular [Ca2+] mobilization in U251 MG cells using FLIPR; assay type: cell-based; details: antagonist potency against Substance P (EC80), normalized to 100 nM Aprepitant, read-out: U251MG (FLIPR pIC50) (converted)
T1 construct: Measurement of NK1 Receptor Mediated Intracellular [Ca^2+]; Mobilization in U251 MG Cells Using FLIPR; endogenous in cells; host or cells: U251 MG cells
T1 sequence (P25103 whole entry): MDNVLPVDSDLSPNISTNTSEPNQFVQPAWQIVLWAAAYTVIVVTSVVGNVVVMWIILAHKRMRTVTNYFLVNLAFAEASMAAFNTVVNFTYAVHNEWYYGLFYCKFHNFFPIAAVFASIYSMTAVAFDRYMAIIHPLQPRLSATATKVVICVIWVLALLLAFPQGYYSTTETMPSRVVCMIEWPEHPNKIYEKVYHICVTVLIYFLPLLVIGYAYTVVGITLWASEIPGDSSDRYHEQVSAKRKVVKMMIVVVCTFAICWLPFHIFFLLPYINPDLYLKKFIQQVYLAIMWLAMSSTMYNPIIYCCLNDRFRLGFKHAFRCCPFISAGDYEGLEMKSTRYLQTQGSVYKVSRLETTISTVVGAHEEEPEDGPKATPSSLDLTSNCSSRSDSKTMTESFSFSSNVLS
Summary of the method: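 Fluo-4-loaded U251 MG cells were preincubated with compound (0.5% DMSO final), with any agonist effect read for 5 min, then 10 min more at 37 °C before Substance P at EC80. Peak FLIPR fluorescence change was read, and IC50 came from a four-parameter fit as the midpoint between fitted top and bottom.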

[1] = Hepatic intrinsic clearance following incubation in human liver microsomes; assay type: in vitro ADME; details: NADPH regenerating system, 0-30 min, 37 °C
Experimental: Hepatic Extraction Ratio from Hepatic Intrinsic Clearance Following Incubation in Human Liver Microsomes
The general procedure consists of an automated incubation system and LC-MS/MS analysis with human liver microsomes. Human liver microsomes are thawed rapidly in a waterbath at 37° C. and kept on ice until use. The human liver microsomes are diluted with 50 mM potassium phosphate buffer pH 7.4 to a protein concentration of 0.55 mg/mL. Test compounds and positive controls (Verapamil and Dextromethorphan, positive controls for CYP3A4 for CYP2D6 isoforms, respectively) are dissolved in methanol (or other appropriate solvent, if necessary) in order to obtain a 5 mM solution which is further diluted to the concentration of 50 μM. The stock solutions are prepared immediately before the test.
5 μL of 50 μM test compounds and controls are added to 445 μL-of the 0.55 mg/mL microsomes solution and the incubation mixture are pre-warmed at 37° C. for 5 minutes.
The incubation reactions are initiated by adding 50 μL of pre-warmed NADPH regenerating system to the incubation mixtures. 50 μL-aliquots will be taken from the incubation mixtures at: 0, 3, 6, 9, 15 and 30 minutes and the reactions are stopped by adding 100 μL of ACN containing Rolipram, used as generic Internal Standard (1S). Samples are then diluted with 120 μL of Milli-Q water and centrifuged at 3000 rpm for 10 minutes, prior the LC-MS/MS analysis.
The integrated peak areas for test compounds at the selected time points are divided by the respective peak areas of the IS and the percent of parent remaining is calculated by normalizing the peak area ratio of parent to IS at 0 min. Observed rate constant (kobs) for parent degradation is calculated by determining the slope of the line of the graph of the natural log of percentage parent remaining versus time of incubation. From the rate of depletion (min-1) and volume of the incubation (mL), clearance is estimated. This is scaled for the protein in the incubation relative to that in the intact liver, for all species (mL/min/g liver).
Values for the Human in vitro Clint are expressed as mL/min/g liver.
Assuming a liver weight of 25.7 g/kg and a liver blood flow of 20.7 mL/min/kg, the hepatic extraction ratio, Eh, can be derived from the Human in vitro Clint:
E.g. a Human in vitro Clint of 2.4 mL/min/g liver corresponds to a hepatic extraction ratio of 75%.
Some compounds of the present invention were tested according to example 121.

## Cc1ccccc1C1C2CC(CO)CN2CCN1C(=O)N(C)Cc1cc(C(F)(F)F)cc(C(F)(F)F)c1 (single isomer, unassigned) [Compound 52, N-{[3,5-bis(trifluoromethyl)phenyl]methyl}-7-(hydroxymethyl)-N-methyl-1-(2-methylphenyl)-octahydropyrrolo[1,2-a]piperazine-2-carboxamide; methanesulfonic acid salt]
NK1 receptor
  IC50: 0.513 nM
[1]
  Human in vitro Clint (mL/min/g liver): 3.1 mL/min/g liver

## Cc1ccccc1C1C2CC(CO)C(=O)N2CCN1C(=O)N(C)[C@H](C)c1cc(C(F)(F)F)cc(C(F)(F)F)c1 (single isomer, unassigned) [Compound 56]
NK1 receptor
  IC50: 0.112 nM
[1]
  Human in vitro Clint (mL/min/g liver): 0.34 mL/min/g liver

## Cc1ccccc1C1C2CCCN2CCN1C(=O)N(C)[C@H](C)c1cc(C(F)(F)F)cc(C(F)(F)F)c1 (single isomer, unassigned) [Compound 63]
NK1 receptor
  IC50: 0.324 nM
[1]
  Human in vitro Clint (mL/min/g liver): 11 mL/min/g liver

## Cc1ccccc1C1C2CC(CCO)(CCO)CN2CCN1C(=O)N(C)Cc1cc(C(F)(F)F)cc(C(F)(F)F)c1 (single isomer, unassigned) [Compound 66, N-{[3,5-bis(trifluoromethyl)phenyl]methyl}-7,7-bis(2-hydroxyethyl)-N-methyl-1-(2-methylphenyl)-octahydropyrrolo[1,2-a]piperazine-2-carboxamide]
NK1 receptor
  IC50: 0.0794 nM
[1]
  Human in vitro Clint (mL/min/g liver): 4.2 mL/min/g liver

## Cc1ccccc1[C@H]1[C@H]2CCC(=O)N2CCN1C(=O)N(C)[C@H](C)c1cc(C(F)(F)F)cc(C(F)(F)F)c1 (single isomer, unassigned) [Compound 75]
NK1 receptor
  IC50: 0.0316 nM
[1]
  Human in vitro Clint (mL/min/g liver): 32 mL/min/g liver

## Cc1ccccc1[C@H]1[C@@H]2CC(CCO)(CCO)C(=O)N2CCN1C(=O)N(C)Cc1cc(F)cc(C(F)(F)F)c1 [Compound 76, (1S,8aS)-N-(3-fluoro-5-(trifluoromethyl)benzyl)-7,7-bis(2-hydroxyethyl)-N-methyl-6-oxo-1-o-tolylhexahydropyrrolo[1,2-a]pyrazine-2(1H)-carboxamide]
NK1 receptor
  IC50: 0.148 nM
[1]
  Human in vitro Clint (mL/min/g liver): 12 mL/min/g liver

## Cc1cc(CN(C)C(=O)N2CCN3C(=O)C(CCO)(CCO)C[C@H]3[C@@H]2c2ccccc2C)cc(C(F)(F)F)c1 [Compound 77, (1S,8aS)-7,7-bis(2-hydroxyethyl)-N-methyl-N-(3-methyl-5-(trifluoromethyl)benzyl)-6-oxo-1-o-tolylhexahydropyrrolo[1,2-a]pyrazine-2(1H)-carboxamide]
NK1 receptor
  IC50: 0.0631 nM
[1]
  Human in vitro Clint (mL/min/g liver): 15 mL/min/g liver

## COc1cc(CN(C)C(=O)N2CCN3C(=O)C(CCO)(CCO)C[C@H]3[C@@H]2c2ccccc2C)cc(C(F)(F)F)c1 [Compound 78, (1S,8aS)-7,7-bis(2-hydroxyethyl)-N-(3-methoxy-5-(trifluoromethyl)benzyl)-N-methyl-6-oxo-1-o-tolylhexahydropyrrolo[1,2-a]pyrazine-2(1H)-carboxamide]
NK1 receptor
  IC50: 0.112 nM
[1]
  Human in vitro Clint (mL/min/g liver): 4.6 mL/min/g liver

## Cc1ccccc1[C@H]1[C@@H]2CC(CCO)(CCO)C(=O)N2CCN1C(=O)N(C)Cc1cc(Cl)cc(C(F)(F)F)c1 [Compound 79, (1S,8aS)-N-(3-chloro-5-(trifluoromethyl)benzyl)-7,7-bis(2-hydroxyethyl)-N-methyl-6-oxo-1-o-tolylhexahydropyrrolo[1,2-a]pyrazine-2(1H)-carboxamide]
NK1 receptor
  IC50: 0.105 nM
[1]
  Human in vitro Clint (mL/min/g liver): 14 mL/min/g liver

## CCC(c1cc(C(F)(F)F)cc(C(F)(F)F)c1)N(C)C(=O)N1CCN2C(=O)C(CCO)(CCO)C[C@H]2[C@@H]1c1ccccc1C (stereo partly drawn) [Compound 83, (1S,8aS)-N-(1-(3,5-bis(trifluoromethyl)phenyl)propyl)-7,7-bis(2-hydroxyethyl)-N-methyl-6-oxo-1-o-tolylhexahydropyrrolo[1,2-a]pyrazine-2(1H)-carboxamide]
NK1 receptor
  IC50: 0.132 nM
[1]
  Human in vitro Clint (mL/min/g liver): 7.8 mL/min/g liver

## Cc1cc([C@H](C)N(C)C(=O)N2CCN3C(=O)C(CCO)(CCO)C[C@H]3[C@@H]2c2ccccc2C)cc(C(F)(F)F)c1 [Compound 84, (1S,8aS)-7,7-bis(2-hydroxyethyl)-N-methyl-N-((S)-1-(3-methyl-5-(trifluoromethyl)phenyl)ethyl)-6-oxo-1-o-tolylhexahydropyrrolo[1,2-a]pyrazine-2(1H)-carboxamide]
NK1 receptor
  IC50: 0.0631 nM
[1]
  Human in vitro Clint (mL/min/g liver): 8.5 mL/min/g liver

## Cc1cc([C@@H](C)N(C)C(=O)N2CCN3C(=O)C(CCO)(CCO)C[C@H]3[C@@H]2c2ccccc2C)cc(C(F)(F)F)c1 [Compound 85, (1S,8aS)-7,7-bis(2-hydroxyethyl)-N-methyl-N-((R)-1-(3-methyl-5-(trifluoromethyl)phenyl)ethyl)-6-oxo-1-o-tolylhexahydropyrrolo[1,2-a]pyrazine-2(1H)-carboxamide]
NK1 receptor
  IC50: 0.0794 nM
[1]
  Human in vitro Clint (mL/min/g liver): 17 mL/min/g liver

## Cc1ccccc1[C@H]1[C@@H]2CC(CCO)(CCO)C(=O)N2CCN1C(=O)N(C)[C@H](CO)c1cc(C(F)(F)F)cc(C(F)(F)F)c1 [Compound 86, (1S,8aS)-N-((S)-1-(3,5-bis(trifluoromethyl)phenyl)-2-hydroxyethyl)-7,7-bis(2-hydroxyethyl)-N-methyl-6-oxo-1-o-tolylhexahydropyrrolo[1,2-a]pyrazine-2(1H)-carboxamide]
NK1 receptor
  IC50: 0.129 nM
[1]
  Human in vitro Clint (mL/min/g liver): 2.8 mL/min/g liver

## Cc1ccccc1[C@H]1[C@@H]2CC(CCO)(CCO)C(=O)N2CCN1C(=O)N(C)[C@H](C)c1cccc(C(F)(F)F)c1 [Compound 88, (1S,8aS)-7,7-bis(2-hydroxyethyl)-N-methyl-6-oxo-1-o-tolyl-N-((R)-1-(3-(trifluoromethyl)phenyl)ethyl)hexa hydropyrrolo[1,2-a]pyrazine-2(1H)-carboxamide]
NK1 receptor
  IC50: 0.0631 nM
[1]
  Human in vitro Clint (mL/min/g liver): 13 mL/min/g liver

## Cc1ccccc1[C@H]1[C@@H]2CC(CCO)(CCO)C(=O)N2CCN1C(=O)N(C)[C@H](C)c1cc(Cl)cc(C(F)(F)F)c1 [Compound 89, (1S,8aS)-N-((R)-1-(3-chloro-5-(trifluoromethyl)phenyl)ethyl)-7,7-bis(2-hydroxyethyl)-N-methyl-6-oxo-1-o-tolylhexahydropyrrolo[1,2-a]pyrazine-2(1H)-carboxamide]
NK1 receptor
  IC50: 0.126 nM
[1]
  Human in vitro Clint (mL/min/g liver): 15 mL/min/g liver

## Cc1ccccc1[C@H]1[C@@H]2CC(CCO)(CCO)C(=O)N2CCN1C(=O)N(C)[C@@H](C)c1cc(Cl)cc(C(F)(F)F)c1 [Compound 90, (1S,8aS)-N-((S)-1-(3-chloro-5-(trifluoromethyl)phenyl)ethyl)-7,7-bis(2-hydroxyethyl)-N-methyl-6-oxo-1-o-tolylhexahydropyrrolo[1,2-a]pyrazine-2(1H)-carboxamide]
NK1 receptor
  IC50: 0.0398 nM
[1]
  Human in vitro Clint (mL/min/g liver): 7.6 mL/min/g liver

## COc1cc([C@@H](C)N(C)C(=O)N2CCN3C(=O)C(CCO)(CCO)C[C@H]3[C@@H]2c2ccccc2C)cc(C(F)(F)F)c1 [Compound 91, (1S,8aS)-7,7-bis(2-hydroxyethyl)-N-((R)-1-(3-methoxy-5-(trifluoromethyl)phenyl)ethyl)-N-methyl-6-oxo-1-o-tolylhexahydropyrrolo[1,2-a]pyrazine-2(1H)-carboxamide]
NK1 receptor
  IC50: 0.0631 nM
[1]
  Human in vitro Clint (mL/min/g liver): 8.5 mL/min/g liver
